The test system of assay [1] is TAR-TAT complex formation in HL3T1 cells. The assay can be described thus: In vivo assay: inhibition of TAR-TAT complex formation in HL3T1 cells (HIV-1 LTR promoter, CAT reporter). The assay is classed as cell-based. The note with it: compounds of formula V transfected into HL3T1 cells with pSV2Tat and pAL, CAT and luciferase read after 48 hour, read-out: Kd (nM), binding constants. The procedure: Binding of compounds of formula I and V to TAR RNA was measured by evaluating their inhibition of TAR-TAT complex formation in the presence of increasing levels of the compound to be tested. The compounds of formula I were tested in an in vitro assay; the compounds of formula V were tested in an in vivo assay.
Cells were grown in 2 mL of Dulbecco's modified Eagle medium (DMEM) supplemented with 10% fetal calf serum in 60 mm dishes at 37° C. in 5% CO2 in a tissue culture incubator. Cells were refreshed by 2 mL DMEM before transfection. Transfection was started by dropwise addition of 250 μL 2×HeBS (Hepes-buffered saline) and then keeping at room temperature for 10 minutes. Approximately 10 μg of plasmids (pSV2Tat and pAL) and increasing amounts of the Compounds DV, DW, DX or DY were transfected in the presence of CaCl2 (final concentration 125 mM) and the cells were incubated for 4 hour at 37° C. in a tissue culture incubator. The medium was then discarded and the cells were subjected to glycerol (1.5 mL of 15%) shock for 45 seconds. Finally the cells were washed twice with PBS (5 mL) and were grown in 3 mL DMEM. The cells were harvested after 48 hour post-transfection with changing with fresh DMEM at 24 hours and lysed in reporter lysis buffer (Promega). Aliquots were used for CAT and luciferase assays. Both activities were normalized to protein concentration determined by using a modified Bradford assay (Bio-Rad).

The target of assay [2] is TAR RNA. The note with it: TAT binding to TAR RNA, Dingwall et al. (1990); cited from earlier work.
Assay [3] addresses TAR RNA. The assay can be described thus: In vitro binding of resin-bound compounds to TAR RNA (OD260 of unbound RNA). The note with it: in vitro assay; compounds of formula I on TentaGel beads incubated with TAR RNA overnight at 4° C. in TK buffer; read-out: Kd (nM), binding constants. Also noted: species or system HIV. The method in brief: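 Ten beads of TentaGel-bound compound in TK buffer were incubated overnight at 4 °C with T7-transcribed 29-residue TAR RNA ([…]). Unbound RNA in the supernatant was quantified by OD260. KD was calculated from equilibrium RNA concentrations assuming simple bimolecular binding.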

Read-outs that look alike come from different tables or passages of the source.

The term Kd denotes the equilibrium constant for the complex coming apart. Take `N=C(N)NCCC[C@@H](CNC(=O)N[C@@H](CCCCN)CNC(=O)N[C@H](CN)CCCCN)NC(N)=O` [Compound DW, 1-{5-Amino-1-[3-(5-amino-1-aminomethyl-pentyl)-ureidomethyl]-pentyl}-3-(5-guanidino-2-ureido-pentyl)-urea]: the Kd in assay [1] was found to be 50 nM.

Take `N=C(N)NCCC[C@@H](CNC(=O)N[C@@H](CCCNC(=N)N)CNC(=O)N[C@H](CN)CCCCN)NC(N)=O`: the dissociation constant Kd in assay [1] was determined as 500 nM.

On to “TAT: virally encoded HIV trans-acting regulatory protein that specifically recognizes TAR RNA”, for which the Kd at TAR RNA [2] was 12 nM.

For `N=C(N)NCCC[C@@H](CNC(=O)N[C@@H](CCCCN)CNC(=O)NCCN)NC(N)=O` [Compound DY], in assay [1], the Kd was determined as 150 nM.

Take `N=C(N)NCCC[C@@H](CNC(=O)N[C@@H](CCCCN)CNC(=O)N[C@H](CN)CCCNC(=N)N)NC(N)=O` [Compound DV, 1-{5-Amino-1-[3-(1-aminomethyl-4-guanidino-butyl)-ureidomethyl]-pentyl}-3-(5-guanidino-2-ureido-pentyl)-urea]: the Kd in assay [1] was determined as 500 nM.

On to `NCCCCCCCN(CC(=O)N[C@@H](CCCCN)COC(N)=O)C(=O)CNCCCCCN` [Compound DO, Carbamic acid 6-amino-2-(2-{(7-amino-heptyl)-[2-(5-amino-pentylamino)-acetyl]-amino}-acetylamino)-hexyl ester], for which the Kd at TAR RNA [3] came to 1040 nM.

The values are drawn from patent publication US6583309B1 (University of Medicine and Dentistry of New Jersey, priority 1999, dated 2003).
